Converted amounts (≈) assume the structure as drawn. Read-outs that look alike come from different tables or passages of the source.
What was measured:
GAK = molecular target: T1, GAK (Homo sapiens, UniProt O14976); assay: GAK binding assay (T7 phage kinase competition binding)
T1 construct: made in house; host or cells: T7 phage grown in E. coli host derived from BL21
T1 sequence (O14976 1-1311): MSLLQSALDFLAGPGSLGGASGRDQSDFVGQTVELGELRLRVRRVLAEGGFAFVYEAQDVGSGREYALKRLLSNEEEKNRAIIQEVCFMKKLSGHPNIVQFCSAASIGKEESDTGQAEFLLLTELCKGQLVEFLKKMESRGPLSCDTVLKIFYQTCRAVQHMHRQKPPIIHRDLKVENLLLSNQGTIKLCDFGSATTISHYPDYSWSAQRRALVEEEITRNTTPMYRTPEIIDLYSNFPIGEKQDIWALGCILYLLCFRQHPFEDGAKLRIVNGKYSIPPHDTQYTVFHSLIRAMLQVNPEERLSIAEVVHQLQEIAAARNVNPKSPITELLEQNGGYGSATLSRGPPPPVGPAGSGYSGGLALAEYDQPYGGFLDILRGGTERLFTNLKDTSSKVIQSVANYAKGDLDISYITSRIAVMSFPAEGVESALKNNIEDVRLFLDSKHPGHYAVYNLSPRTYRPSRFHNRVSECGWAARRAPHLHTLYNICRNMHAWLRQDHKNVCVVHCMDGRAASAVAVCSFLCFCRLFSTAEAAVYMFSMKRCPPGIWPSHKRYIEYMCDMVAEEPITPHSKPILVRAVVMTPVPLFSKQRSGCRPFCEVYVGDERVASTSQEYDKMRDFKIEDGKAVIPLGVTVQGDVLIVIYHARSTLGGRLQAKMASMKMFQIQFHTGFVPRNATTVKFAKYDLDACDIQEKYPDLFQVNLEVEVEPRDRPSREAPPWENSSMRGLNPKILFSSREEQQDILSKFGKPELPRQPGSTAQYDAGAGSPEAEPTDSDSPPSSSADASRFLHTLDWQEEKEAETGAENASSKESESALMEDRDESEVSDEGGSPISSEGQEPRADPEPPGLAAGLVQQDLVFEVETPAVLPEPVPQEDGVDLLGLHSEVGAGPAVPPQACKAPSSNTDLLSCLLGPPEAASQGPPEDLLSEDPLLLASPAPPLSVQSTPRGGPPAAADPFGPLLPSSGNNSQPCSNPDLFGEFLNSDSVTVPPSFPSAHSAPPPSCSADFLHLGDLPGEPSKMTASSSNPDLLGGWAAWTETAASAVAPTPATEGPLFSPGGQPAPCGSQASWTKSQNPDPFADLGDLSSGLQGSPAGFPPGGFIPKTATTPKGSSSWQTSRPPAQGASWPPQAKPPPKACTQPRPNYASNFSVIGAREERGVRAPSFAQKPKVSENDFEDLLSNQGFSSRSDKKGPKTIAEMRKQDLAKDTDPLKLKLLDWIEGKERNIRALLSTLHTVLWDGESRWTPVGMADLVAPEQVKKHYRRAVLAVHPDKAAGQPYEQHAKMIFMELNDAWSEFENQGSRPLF

HCV RNA replication = HCV RNA replication by luciferase assays; format: cell-based; settings: 72 hours postelectroporation, daily treatment
AP2M1 phosphorylation = AP2M1 phosphorylation by Western analysis in Huh-7.5 cells; format: cell-based, human; settings: calyculin A, vs DMSO control
cell culture grown DENV = assay: DENV infection of Huh-7 cells, Renilla luciferase assay; format: cell-based; settings: Dengue virus, Huh-7, 72 h, read-out: EC50, DENV infection
[1] = tested on: SARS Coronavirus (Virus strain: Urbani); assay: microbe, parasite or virus in culture; format: cell-based
EGFR = EGFR (Homo sapiens, UniProt P00533); assay: Affinity for EGFR / anti-EGFR activity; format: binding
Huh-7.5 cells [2] = settings: human
Vero76 = settings: African green monkey
in vitro = settings: African green monkey
Huh-7.5 cells [3] = assay: Viability assay, alamarBlue, Huh-7.5 cells; settings: HCVpp entry experiment
Huh-7 cells = assay: Viability assay, alamarBlue, DENV infected Huh-7 cells; settings: 72 hours
[4] = tested on: VSV-EB GFP-reporter virus (VSV bearing surface glycoprotein of EBOV); format: cell-based, Ebola virus
[5] = Severe acute respiratory syndrome coronavirus, Vero 76

EGFR, sequence (P00533 25-1210): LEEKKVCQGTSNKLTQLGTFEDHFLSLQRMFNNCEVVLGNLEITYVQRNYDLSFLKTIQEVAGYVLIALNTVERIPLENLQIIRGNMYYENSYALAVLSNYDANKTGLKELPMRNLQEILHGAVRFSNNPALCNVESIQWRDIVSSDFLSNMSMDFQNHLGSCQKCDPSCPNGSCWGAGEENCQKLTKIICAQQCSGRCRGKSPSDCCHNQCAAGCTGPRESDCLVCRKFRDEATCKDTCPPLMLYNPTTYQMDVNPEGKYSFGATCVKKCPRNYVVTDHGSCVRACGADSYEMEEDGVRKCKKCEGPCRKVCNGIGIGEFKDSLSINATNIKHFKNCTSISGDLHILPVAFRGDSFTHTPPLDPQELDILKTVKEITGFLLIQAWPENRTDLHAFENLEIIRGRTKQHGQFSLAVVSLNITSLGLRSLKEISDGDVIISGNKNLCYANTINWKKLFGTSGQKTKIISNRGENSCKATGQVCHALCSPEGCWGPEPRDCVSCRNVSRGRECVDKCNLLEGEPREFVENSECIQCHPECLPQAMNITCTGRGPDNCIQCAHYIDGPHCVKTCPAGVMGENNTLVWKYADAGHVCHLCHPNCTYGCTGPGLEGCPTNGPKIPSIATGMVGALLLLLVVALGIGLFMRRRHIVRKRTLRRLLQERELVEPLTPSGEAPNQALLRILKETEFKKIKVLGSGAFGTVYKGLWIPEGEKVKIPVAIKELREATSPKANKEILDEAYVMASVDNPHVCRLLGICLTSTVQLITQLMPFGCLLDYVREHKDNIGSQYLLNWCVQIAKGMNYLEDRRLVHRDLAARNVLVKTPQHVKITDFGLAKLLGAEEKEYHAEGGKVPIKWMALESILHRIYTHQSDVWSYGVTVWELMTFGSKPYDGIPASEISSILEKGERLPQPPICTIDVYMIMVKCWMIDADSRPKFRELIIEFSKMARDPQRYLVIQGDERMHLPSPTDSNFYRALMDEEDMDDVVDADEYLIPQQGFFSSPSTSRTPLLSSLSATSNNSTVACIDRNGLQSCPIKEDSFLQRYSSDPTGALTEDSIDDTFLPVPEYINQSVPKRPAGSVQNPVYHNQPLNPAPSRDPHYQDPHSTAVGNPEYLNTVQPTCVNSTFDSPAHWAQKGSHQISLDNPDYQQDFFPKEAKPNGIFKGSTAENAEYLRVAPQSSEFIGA

| SMILES | Kd (GAK) | remaining binding at 10 µM (GAK; single concentration of 10 μM, lower numbers indicate stronger hits, read-out: % Ctrl) | effect on HCV RNA replication (HCV RNA replication) | p-AP2M1 to AP2M1 ratios (AP2M1 phosphorylation) | EC50 (cell culture grown DENV) | EC50 [1] | EC50 [1, 5] | anti-EGFR activity (EGFR) | CC50 (Huh-7.5 cells [2]) | CC50 (Vero76) | CC50 (in vitro) | effect on cellular viability (Huh-7.5 cells [3]) | effect on cellular viability (Huh-7 cells) | % of control binding at 10 µM (GAK; read-out: % Ctrl) | effect on VSV-EB infection, treatment alone [4] |
| --- | --- | --- | --- | --- | --- | --- | --- | --- | --- | --- | --- | --- | --- | --- | --- |
| COc1cc(-c2cnc3c(N4CCOCC4)snc3c2)cc(OC)c1OC [Example 49, 4-(6-(3,4,5-Trimethoxyphenyl)isothiazolo[4,3-b]pyridin-3-yl)morpholine] | 8.3 nM | 0% | did not affect HCV RNA replication | reduced by either 49 or 50 in a dose-dependent manner | 800 nM | 0.77 µg/mL (≈ 1.99 µM) | 1.2 µg/mL (≈ 3.1 µM) | lack anti-EGFR activity | 23300 ± 3400 nM | 50 µg/mL (≈ 129 µM) | 34 µg/mL (≈ 87.8 µM) | minimal effect on cellular viability | minimal effect on cellular viability |  |  |
| COc1cc(-c2cnc3c(N4CCOCC4)snc3c2)ccc1N [Example 50, 2-Methoxy-4-(3-morpholinoisothiazolo[4,3-]pyridin-6-yl)aniline] | 8.9 nM |  | did not affect HCV RNA replication |  | 2600 nM | 3.2 µg/mL (≈ 9.35 µM) | 2.4 µg/mL (≈ 7.01 µM) | lack anti-EGFR activity |  | 13 µg/mL (≈ 38 µM) | 15 µg/mL (≈ 43.8 µM) |  |  | 0% | minimal inhibition of infection |

— patent publication US9822127B2, “GAK modulators as antivirals” (Katholieke Universiteit Leuven, priority 2014, dated 2017)
